Experiments:
[1] = target: T1, E. coli RBP (ribose binding protein) fusion protein CrbsBY-ND (Asn-Asp between ECFP and RBP), SEQ ID NO: 38 (Escherichia coli, UniProt P02925); assay: Ribose titration and sugar specificity of FRET sensor CrbsBY-ND; conditions: for affinity (substrate specificity): in words, FIG. 12C
T1 construct: made in house; host or cells: E. coli JM109 (DE3)
Experimental: (§1) The fluorescence analysis of the MBP fusion proteins expressed and purified in Example 2 was performed using fluorescence spectrophotometer Cary Eclipse (Varian, Australia) at 25° C., and the MBP fusion proteins were diluted in PBS buffer (pH 7.4) to the same concentrations of 0.2 μM. To define the FRET efficiency in the fluorescence analysis, the emission intensity ratio between the emission intensity of ECFP at 480 nm, measured at an excitation wavelength of 436 nm, and the emission intensity of EYFP at 530 nm, caused by FRET, was substituted into Equation 3 below for convenience: Ratio=[530 nm/480 nm] [Equation 3]
(§2) Profiles of the ratios at wide substrate concentrations were fit by a four-parameter Hill equation with SigmaPlot (SSI, USA) and the binding substance concentration corresponding to the medium between ratio10 mM and ratioapo was determined to be the dissociation constant (Kd) of the fusion proteins.
(§3) The selection of PBPs to be introduced into the MBP position was performed by collecting data from SCOP (Structural Classification of Proteins; http://scop.mrc-lmb.cam.ac.uk/scop/), and then investigating the kinetic change of three-dimensional structures which is accompanied by substrate binding in PDB (Protein Data Bank, http://www.rcsb.org/pdb/). For example, three kinds of E. coli-derived PBPs such as ALBP, RBP, and ARBP were introduced into the MBP site of the MBP fusion proteins according to the present invention. For this purpose, the genetic sequence information of said PBPs was secured from Swiss-Prot (http://kr.expasy.org/), and on the basis of the information, primers capable of amplifying genes encoding the PBPs were constructed. The genes were amplified by performing PCR from the chromosome of E. coli MG1655 using the constructed primers.
(§4) The fusion protein expression vectors constructed in the form of libraries as described above were transformed into E. coli JM109 (DE3), and 3-5 bacterial strains transformed with vectors were randomly selected from each of the libraries without carrying out the screening process described in Example 4, and were expressed and purified according to the method of Example 2. Then, the various PBP fusion proteins were subjected to analyze the fluorescence characteristics to each of substances, and sugar sensors (the fluorescent indicator proteins for detection of sugar) having the highest signal intensity were selected. As a result, as shown on FIGS. 11A, 11B and 11C, and Table 2 below, CalsBY-QV of SEQ ID NO: 36, CaraFY-PR of SEQ ID NO: 37 and CrbsBY-ND of SEQ ID NO: 38 could be secured.
(§5) To examine the substrate affinity of said three kinds of fusion proteins, the substrate specificity thereof for a variety of sugars was analyzed.

[2] = target: T2, E. coli ARBP (arabinose binding protein) fusion protein CaraFY-PR (Pro-Arg between ECFP and ARBP), SEQ ID NO: 37 (Escherichia coli, UniProt P02924); assay: Arabinose titration and sugar specificity of FRET sensor CaraFY-PR; conditions: for affinity (substrate specificity): in words, FIG. 12B
T2 construct: made in house; host or cells: E. coli JM109 (DE3)
Experimental: as §1, §2, §3, §4, §5

[3] = target: T3, SBP (sucrose binding protein; MBP mutant Asp14Leu, Lys15Phe, Trp62Tyr, Glu111Tyr) fusion protein CSY-LH, SEQ ID NO: 39 (Escherichia coli, UniProt P0AEX9, D40L/E137Y/K41F/W88Y); assay: Sucrose and maltose titration and sugar specificity of FRET sensor CSY-LH; conditions: for Quantification range: range between 10 and 90% saturation
T3 construct: made in house; host or cells: E. coli JM109 (DE3)
Experimental: as §1, §2
(§6) The MBP-encoding gene to be used as a template was a pMALc2x vector (NEB, USA), and to make the SBP gene, PCR was performed using primers of SEQ ID NOs: 27, 28, 29 and 11. Because the above-amplified gene contains partial mutations in MBP, including a substitution of Asp14 with Leu, a substitution of Lys15 with Phe, a substitution of Trp62 with Tyr, and a substitution of Glu111 with Tyr, it encodes the SBP gene capable of binding to sucrose, as reported in the prior art (Guntas, G. et al., PNAS, 102:11224, 2005).
(§7) The above SBP fusion protein expression vectors were transformed into E. Coli JM109 (DE3), expressed and purified according to the method of Example 3.
The CSY-LH was analyzed for binding affinity for a variety of sugars.

[4] = target: T4, SBP (sucrose binding protein; MBP mutant Asp14Leu, Lys15Phe, Trp62Tyr, Glu111Tyr) fusion protein CSY-BII (Escherichia coli, UniProt P0AEX9, D40L/E137Y/K41F/W88Y); assay: Sucrose and maltose titration of FRET sensor CSY-BII; conditions: for Quantification range: range between 10 and 90% saturation
T4 construct: SBP = engineered MBP made on pMALc2x template; expressed in E. coli JM109(DE3), purified
Experimental: as §1, §2, §6, §7

[5] = target: T5, SBP (sucrose binding protein; MBP mutant Asp14Leu, Lys15Phe, Trp62Tyr, Glu111Tyr) fusion protein CSY-B (Escherichia coli, UniProt P0AEX9, D40L/E137Y/K41F/W88Y); assay: Sucrose and maltose titration of FRET sensor CSY-B; conditions: for Quantification range: range between 10 and 90% saturation
T5 construct: SBP = engineered MBP made on pMALc2x template; expressed in E. coli JM109(DE3), purified
Experimental: as §1, §2, §6, §7

[6] = target: T6, E. coli ALBP (allose binding protein) fusion protein CalsBY-QV (Gln-Val between ECFP and ALBP), SEQ ID NO: 36 (Escherichia coli, UniProt P39265); assay: Allose titration and sugar specificity of FRET sensor CalsBY-QV
T6 construct: made in house; host or cells: E. coli JM109 (DE3)

[7] = target: T7, MBP (maltose binding protein) fusion protein CMY-LH (Leu-His between ECFP and MBP), SEQ ID NO: 32 (Escherichia coli, UniProt P0AEX9); assay: Maltose titration and sugar specificity of FRET sensor CMY-LH; conditions: for affinity (substrate specificity): in words, FIG. 8A, 10 mM for d-glucose and melezitose, change attributed to contamination of trace maltose
T7 construct: made in house; host or cells: E. coli JM109 (DE3)
Experimental: as §1, §2

[8] = target: T8, MBP (maltose binding protein) fusion protein CMY-0 (ECFP-MBP-EYFP without connecting peptides) (Escherichia coli, UniProt P0AEX9); assay: Maltose titration of FRET sensor CMY-0 (fluorescence ratio 530/480 nm); conditions: range between 10 and 90% saturation
T8 construct: mature MBP amplified from pMALc2x (NEB); expressed in E. coli JM109(DE3), purified
Experimental: as §1, §2

[9] = target: T9, MBP (maltose binding protein) fusion protein CMY-BII (ECFP-SR-MBP-GS-EYFP) (Escherichia coli, UniProt P0AEX9); assay: Maltose titration of FRET sensor CMY-BII; conditions: range between 10 and 90% saturation
T9 construct: mature MBP from pMALc2x; expressed in E. coli JM109(DE3), purified
Experimental: as §1, §2

[10] = target: T10, MBP (maltose binding protein) fusion protein CMY-LH variant CMY-LH/W62A (Trp62Ala in MBP), SEQ ID NO: 33 (Escherichia coli, UniProt P0AEX9, W88A); assay: Maltose titration of FRET sensor CMY-LH/W62A; conditions: range between 10 and 90% saturation
T10 construct: made in house; host or cells: E. coli JM109 (DE3)
Experimental: as §1, §2

[11] = target: T11, MBP (maltose binding protein) fusion protein CMY-B (ECFP-MBP-EYFP) (Escherichia coli, UniProt P0AEX9); assay: Maltose response of FRET sensor CMY-B; conditions: in words; control for yeast imaging, 10 mM maltose
T11 construct: mature MBP from pMALc2x; expressed in E. coli JM109(DE3), purified
Experimental: as §1, §2

[12] = target: T12, MBP (maltose binding protein) fusion protein CMY-LH variant CMY-LH/W62L (Trp62Leu in MBP), SEQ ID NO: 35 (Escherichia coli, UniProt P0AEX9, W88L); assay: Maltose titration and sugar specificity of FRET sensor CMY-LH/W62L; conditions: range between 10 and 90% saturation
T12 construct: made in house; host or cells: E. coli JM109 (DE3)
Experimental: as §1, §2

[13] = target: T13, MBP (maltose binding protein) fusion protein CMY-QI (Gln-Ile between ECFP and MBP), SEQ ID NO: 31 (Escherichia coli, UniProt P0AEX9); assay: Maltose titration of FRET sensor CMY-QI; conditions: range between 10 and 90% saturation
T13 construct: made in house; host or cells: E. coli JM109 (DE3)
Experimental: as §1, §2

[14] = target: T14, MBP (maltose binding protein) fusion protein CMY-LH variant CMY-LH/W62H (Trp62His in MBP), SEQ ID NO: 34 (Escherichia coli, UniProt P0AEX9, W88H); assay: Maltose titration and sugar specificity of FRET sensor CMY-LH/W62H; conditions: range between 10 and 90% saturation
T14 construct: made in house; host or cells: E. coli JM109 (DE3)
Experimental: as §1, §2

[15] = ratio(10 mM) minus ratioapo, saturating sugar

In the case of `OC1OC[C@@H](O)[C@H](O)[C@H]1O` (some centres unmarked) [xylose], the “affinity (substrate specificity)” value [1] is reported as “significant affinity” and the “affinity (substrate specificity)” value [2] is reported as “low affinity”.

In the case of `OC[C@H]1O[C@@H](O[C@H]2[C@H](O)[C@@H](O)C(O)O[C@@H]2CO)[C@H](O)[C@@H](O)[C@H]1O` (some centres unmarked) [lactose], the “affinity (substrate specificity)” value [2] is reported as “low affinity”.

With `OC[C@H]1O[C@@](CO)(O[C@H]2O[C@H](CO)[C@@H](O)[C@H](O)[C@H]2O)[C@@H](O)[C@@H]1O` [sucrose] the Kd [3] was 163 ± 3 µM, the “Kd, fold higher than previously reported results” value ([3]; compared to Guntas et al., PNAS, 102:11224, 2005) was “about 25 fold” and the Quantification range [3] was 17-1,560 μM. The Δratio [3, 15] was 0.72, the Kd [4] was 234 ± 18 µM and the Quantification range [4] was 30-1,880 μM. The Δratio [4, 15] was 0.14, the Kd [5] was 286 ± 16 µM and the Quantification range [5] was 20-3,700 μM. For the same compound, the Δratio [5, 15] was −0.11.

With `OC[C@H]1O[C@H](OC[C@H]2OC(O)[C@H](O)[C@@H](O)[C@@H]2O)[C@H](O)[C@@H](O)[C@H]1O` (some centres unmarked) [melibiose] the “affinity (substrate specificity)” value [2] was “low affinity”.

With `OC1OC[C@@H](O)[C@@H](O)[C@H]1O` (some centres unmarked) [ribose] the Kd ([1]; ribose, 50% saturation) was 0.17 ± 0.01 µM, the Quantification range ([1]; ribose, range between 10 and 90% saturation) was 0.03 to 1.15 µM and the Δratio ([1]; ribose, ratio(10 mM) minus ratioapo, saturating sugar) was −0.12. For the same compound, the “affinity (substrate specificity)” value ([6]; in words, FIG. 12A, ribose at mM levels) was “low affinity”.

`OC[C@H]1O[C@@](CO)(O[C@H]2O[C@H](CO)[C@@H](O)[C@H](O)[C@H]2O)[C@@H](O[C@H]2O[C@H](CO)[C@@H](O)[C@H](O)[C@H]2O)[C@@H]1O` [melezitose] was tested, and the “affinity (substrate specificity)” value [7] was “low level of affinity”.

In the case of `OC[C@H]1O[C@H](O[C@H]2[C@H](O)[C@@H](O)C(O)O[C@@H]2CO)[C@H](O)[C@@H](O)[C@@H]1O` (some centres unmarked) [maltose], the Quantification range [8] is reported as 0.5 to 11.2 µM, the Quantification range [3] is reported as 80-5,080 μM and the Quantification range [9] is reported as 0.3 to 13.3 µM. The Quantification range ([7]; maltose, range between 10 and 90% saturation) was 0.2 to 13.2 µM, the Quantification range [10] was 31-2,080 μM and the sensitivity to maltose [11] was “no sensitivity”. For the same compound, the Quantification range [12] was 10 to 650 µM, the Quantification range [4] was 155-3,800 μM and the Quantification range [13] was 0.2 to 15.1 µM. The Quantification range [5] was 120-9,500 μM and the Quantification range [14] was 5 to 325 µM.

`OC1OC[C@H](O)[C@H](O)[C@H]1O` (some centres unmarked) [arabinose] gave a Kd [2] of 0.36 ± 0.01 µM, a Quantification range ([2]; arabinose, range between 10 and 90% saturation) of 0.05 to 2.74 µM and a Δratio ([2]; arabinose, ratio(10 mM) minus ratioapo, saturating sugar) of 0.29.

With `C[C@@H]1OC(O)[C@H](O)[C@H](O)[C@H]1O` (some centres unmarked) [rhamnose] the “affinity (substrate specificity)” value [2] was “low affinity”.

With `OC[C@H]1OC(O)[C@H](O)[C@@H](O)[C@@H]1O` (stereo partly drawn) [d-glucose] the “affinity (substrate specificity)” value [7] was “low level of affinity”.

`OC[C@H]1OC(O)[C@H](O)[C@H](O)[C@@H]1O` (some centres unmarked) [allose] was tested, and the “affinity (substrate specificity)” value [1] was “very high affinity” and the Quantification range ([6]; allose, range between 10 and 90% saturation) was 0.04 to 2.81 µM.

For `OC[C@H]1OC(O)[C@H](O)[C@@H](O)[C@H]1O` (some centres unmarked) [galactose], the “affinity (substrate specificity)” value [2] was “very high affinity”.

From patent US7432353B2, “Fluorescent indicator proteins” (priority 2005, dated 2008)
